The record followed here is patent US20070190539A1, “Human MLR single nucleotide polymorphisms associated with dose-dependent congestive heart failure and methods of use thereof” (Bristol-Myers Squibb Company, priority 2005, published 2007).

This series in a line: Phase II clinical trials CV168-006 and CV168-008: diagnosis of congestive heart failure in patients treated with compound A. In kind it is in vivo, human. Here is the method: Genomic DNA samples from patients enrolled in two Bristol-Myers Squibb Company Phase II clinical trials CV168-006 and CV168-008 trials were genotyped for 1 SNP identified in the human mineralocorticoid receptor gene (see Example 1) and evaluated for association with congestive heart failure.
498 subjects enrolled in the CV168-006 trial and 232 subjects from the CV168-008 trial were analyzed in this study. All analyses were based on data collected up to 24 weeks, which was the duration of the short-term phase of the trials. DNA was extracted from frozen blood by a third-party (Genaissance Inc, North Carolina) using a salting-out method (Gentra Systems). All subjects gave written informed consent.
At the time of this analysis four individuals were diagnosed as having developed congestive heart failure. All four were in the CV168-006 trial; three were being treated with 10 mg of compound A and one with 20 mg of compound A. All SNPs that were analyzed above were also tested for association with CHF using contingency tables.
Sample. Investigators in the BMS clinical trials diagnosed dose-dependent congestive heart failure in some subjects.
Genomic DNA samples from patients enrolled in two Bristol-Myers Squibb Company Phase II clinical trials CV168-006 and CV168-008 trials were genotyped for 1 SNP identified in the human PPAR-gamma gene (see Example 7) and evaluated for association with congestive heart failure.
At the time of this analysis four individuals were diagnosed as having developed congestive heart failure. All four were in the CV 168-006 trial; three were being treated with 10 mg of compound A and one with 20 mg of compound A. All SNPs that were analyzed above were also tested for association with CHF using contingency tables.
Genomic DNA samples from patients enrolled in two Bristol-Myers Squibb Company Phase II clinical trials CV168-006 and CV168-008 trials were genotyped for 1 SNP identified in the human Adiponectin gene (see Example 13) and evaluated for association with congestive heart failure.

As for `COc1ccc(OC(=O)N(CC(=O)O)Cc2ccc(OCCc3nc(-c4ccccc4)oc3C)cc2)cc1` [compound A, N-[(4-methoxyphenoxy)carbonyl]-N-[[4-[2-(5-methyl-2-phenyl-4-oxazolyl)ethoxy]phenyl]methyl]glycine], the “individuals who developed congestive heart failure while treated with 10 mg” value (CV168-006 trial, 10 mg of compound A, data up to 24 weeks) is recorded as “three”. The “individuals who developed congestive heart failure while treated with 20 mg” value (CV168-006 trial, 20 mg of compound A, data up to 24 weeks) is on record as “one”. Further, the “dose dependence of congestive heart failure (CHF)” value (Phase II trials, patients, high doses = 10 and 20 mg arms) is “observed only at high doses”. Besides, the “individuals diagnosed as having developed congestive heart failure” value (all subjects analysed (498 in CV168-006, 232 in CV168-008), data up to 24 weeks, all four cases in the CV168-006 trial) is recorded as “four”.
